According to patent US20100184683A1, “ANTIBACTERIAL AND ANTIFUNGAL PEPTIDES” (C3 JIAN, INC., priority 2009, published 2010):
Converted amounts (≈) assume the structure as drawn. Like-named read-outs stand apart in the source and are kept apart here. Peptide text beside a SMILES is read from it.

Tests used:
[1] = test system: S. pneumoniae; format: cell-based, Streptococcus pneumoniae
Description: (§1) In certain embodiments the MIC assays are performed as described herein in the Examples. For each organism, the media and growth conditions utilized is detailed in Table 8.
(§2) In certain embodiments the MIC assays are performed as follows: For each organism, the media and growth conditions utilized is detailed in Table 8.

[2] = test system: A. niger; format: cell-based, Aspergillus niger
Description: as §1, §2

[3] = test system: S. epidermidis; format: cell-based
Description: as §1, §2

[4] = test system: MRSA; format: cell-based, Methicillin-resistant Staphylococcus aureus
Description: as §1, §2

[5] = test system: Candida albicans; test: Binding of targeting peptides to Candida albicans; details: tested at 3.13, 6.25, 12.5 and 25.0 μM in 1× PBS or HEPES/NaCl/MgCl2/0.1% CTAB
Description: The peptides in Table 6 were tested for binding efficiency at 3.13, 6.25, 12.5 and 25.0 μM concentrations in 1× phosphate-buffered saline or 20 mM HEPES (4-(2-hydroxyethyl)-1-piperazineethanesulfonic acid), 150 mM sodium chloride, 1 mM magnesium chloride and 0.1% CTAB.

[6] = test system: C. albicans; format: cell-based, Candida albicans
Description: as §1, §2

[7] = test system: T. rubrum; format: cell-based, Trichophyton rubrum
Description: as §1, §2

[8] = test system: B. subtilis; format: cell-based, Bacillus subtilis
Description: as §1, §2

[9] = A. niger, Potato Dextrose Agar, 25° C., aerobic, inoculum 10^5 CFU/ml, 18-24 h or 48 h

With CC[C@H](C)[C@H](NC(=O)[C@H](CCC(N)=O)NC(=O)[C@H](CC(=O)O)NC(=O)[C@H](CO)NC(=O)[C@H](Cc1ccccc1)NC(=O)[C@@H](N)CCCCN)C(=O)N[C@@H](CC(=O)O)C(=O)N[C@@H](CCCCN)C(=O)NCC(=O)N[C@@H](CCC(N)=O)C(=O)N[C@@H](CC(=O)O)C(=O)N[C@@H](C)C(=O)N[C@@H](CC(C)C)C(=O)N[C@@H](CCCCN)C(=O)N[C@@H](CC(=O)O)C(=O)N[C@@H](CCCCN)C(=O)N[C@@H](CC(C)C)C(=O)NCC(=O)N[C@@H](CC(=O)O)C(=O)N[C@@H](CC(C)C)C(=O)O [PF-525] (H-KFSDQIDKGQDALKDKLGDL-OH; N-terminus and C-terminus assumed) the MIC [1] was 50 µM (≈ 112 µg/mL) and the MIC [2] was 50 µM (≈ 112 µg/mL).
For CC[C@H](C)[C@H](NC(=O)[C@H](CC(N)=O)NC(=O)[C@@H](NC(=O)[C@H](Cc1ccccc1)NC(=O)[C@H](CCC(=O)O)NC(=O)CNC(=O)[C@H](CCC(N)=O)NC(=O)[C@H](Cc1ccccc1)NC(=O)[C@@H](N)CCCCN)[C@@H](C)O)C(=O)NCC(=O)N[C@@H](CCC(N)=O)C(=O)N[C@@H](CO)C(=O)N[C@@H](Cc1ccc(O)cc1)C(=O)N[C@H](C(=O)N[C@H](C(=O)N[C@@H](CO)C(=O)N[C@@H](C)C(=O)N[C@@H](CO)C(=O)N[C@@H](Cc1c[nH]cn1)C(=O)N[C@@H](CCSC)C(=O)N[C@@H](CO)C(=O)N[C@H](C(=O)N[C@@H](CO)C(=O)N[C@@H](CC(C)C)C(=O)N[C@@H](CC(N)=O)C(=O)N[C@H](C(=O)NCC(=O)N[C@@H](CCCCN)C(=O)O)[C@@H](C)O)[C@@H](C)O)C(C)C)[C@@H](C)CC [PF-583] (H-KFQGEFTNIGQSYIVSASHMSTSLNTGK-OH; N-terminus and C-terminus assumed), the MIC [3] was 50 µM (≈ 152 µg/mL), the MIC [4] was 50 µM (≈ 152 µg/mL) and the “Target(s): form of Candida albicans bound” value [5] was “hyphae”.
CC(C)C[C@H](NC(=O)[C@H](CCC(N)=O)NC(=O)[C@H](CO)NC(=O)[C@H](CCC(N)=O)NC(=O)[C@H](CC(C)C)NC(=O)[C@@H](N)CO)C(=O)NCC(=O)N1CCC[C@H]1C(=O)N[C@@H](CS)C(=O)N[C@@H](CC(C)C)C(=O)N[C@@H](Cc1c[nH]cn1)C(=O)N[C@@H](CC(=O)O)C(=O)N[C@@H](CCC(N)=O)C(=O)N[C@@H](CCCNC(=N)N)C(=O)N[C@@H](Cc1c[nH]cn1)C(=O)O [PF-448] (H-SLQSQLGPCLHDQRH-OH; N-terminus and C-terminus assumed) showed an MIC [1] of 50 µM (≈ 85.9 µg/mL) and an MIC [2] of 25 µM (≈ 43 µg/mL).
CC[C@H](C)[C@H](NC(=O)[C@H](CCCNC(=N)N)NC(=O)[C@H](C)NC(=O)[C@@H]1CCCN1C(=O)[C@H](Cc1c[nH]c2ccccc12)NC(=O)[C@H](CC(C)C)NC(=O)[C@H](CCCNC(=N)N)NC(=O)[C@H](CCCCN)NC(=O)[C@@H](N)Cc1c[nH]c2ccccc12)C(=O)N[C@@H](CC(C)C)C(=O)N[C@@H](C)C(=O)NCC(=O)N[C@@H](Cc1c[nH]cn1)C(=O)N[C@@H](CO)C(=O)N[C@@H](CCCNC(=N)N)C(=O)N[C@@H](CCCNC(=N)N)C(=O)N[C@@H](CCCNC(=N)N)C(=O)N[C@@H](CCSC)C(=O)N[C@@H](CCCNC(=N)N)C(=O)N[C@@H](Cc1c[nH]c2ccccc12)C(=O)N[C@@H](CCSC)C(=O)N[C@H](C(=O)N[C@H](C(=O)N[C@@H](Cc1c[nH]c2ccccc12)C(=O)N[C@@H](CCCNC(=N)N)C(=O)N[C@@H](Cc1ccc(O)cc1)C(=O)N[C@@H](Cc1ccccc1)C(=O)N[C@@H](C)C(=O)N[C@@H](C)C(=O)N[C@H](C(=O)O)[C@@H](C)O)C(C)C)C(C)C [PF-C021] (H-WKRLWPARILAGHSRRRMRWMVVWRYFAAT-OH; N-terminus and C-terminus assumed) gave an MIC [6] of 50 µM (≈ 193 µg/mL) and an MIC [7] of 50 µM (≈ 193 µg/mL).
CC[C@H](C)[C@H](NC(=O)[C@H](C)NC(=O)[C@@H]1CCCN1C(=O)[C@H](Cc1ccccc1)NC(=O)[C@@H]1CCCN1C(=O)[C@H](CC(C)C)NC(=O)[C@@H](N)C(C)C)C(=O)N1CCC[C@H]1C(=O)N[C@@H](CC(C)C)C(=O)N[C@@H](CO)C(=O)N[C@@H](CCCNC(=N)N)C(=O)N[C@@H](CCCNC(=N)N)C(=O)N[C@@H](CCCNC(=N)N)C(=O)N[C@@H](C)C(=O)N[C@@H](CS)C(=O)N[C@H](C(=O)N[C@@H](C)C(=O)N[C@@H](C)C(=O)N1CCC[C@H]1C(=O)N[C@@H](CCCNC(=N)N)C(=O)N1CCC[C@H]1C(=O)N[C@@H](CCCNC(=N)N)C(=O)N[C@@H](CO)C(=O)N[C@@H](CCCNC(=N)N)C(=O)N[C@@H](CCC(N)=O)C(=O)N[C@@H](CCCNC(=N)N)C(=O)N[C@@H](C)C(=O)N[C@@H](CO)C(=O)O)C(C)C [PF-168] (H-VLPFPAIPLSRRRACVAAPRPRSRQRAS-OH; N-terminus and C-terminus assumed) was tested, and the MIC [4] was 50 µM (≈ 156 µg/mL), the MIC [7] was 50 µM (≈ 156 µg/mL) and the MIC [2] was 50 µM (≈ 156 µg/mL). For the same compound, the “Target(s): form of Candida albicans bound” value [5] was “yeast cells”.
Work on LSEMERRRLRKRA [PF-529] yielded an MIC ([1]; S. pneumoniae, TSB supplemented with 5% yeast extract, 37° C., 10% CO2, inoculum 10^6 CFU/ml, 18-24 h or 48 h) of 50 µM and an MIC [2, 9] of 50 µM.
CC(C)[C@H](NC(=O)[C@@H](N)Cc1ccc(O)cc1)C(=O)N[C@@H](CC(N)=O)C(=O)N[C@@H](Cc1ccc(O)cc1)C(=O)N[C@@H](CC(N)=O)C(=O)N[C@@H](CCC(N)=O)C(=O)N[C@@H](CO)C(=O)N[C@@H](Cc1ccccc1)C(=O)N[C@@H](CC(N)=O)C(=O)N[C@@H](CO)C(=O)NCC(=O)N[C@@H](Cc1c[nH]c2ccccc12)C(=O)O [PF-C220] (H-YVNYNQSFNSGW-OH; N-terminus and C-terminus assumed) was tested, and the MIC [6] was 50 µM (≈ 73.9 µg/mL).
RESKLIAMADMIRRRI [PF-545] showed an MIC ([4]; MRSA, BHI supplemented with 2% glucose, 37° C., aerobic, inoculum 10^5 CFU/ml, 18-24 h or 48 h) of 50 µM, an MIC [2, 9] of 50 µM and an MIC ([8]; B. subtilis, BHI, 30° C., aerobic, inoculum 10^5 CFU/ml, 18-24 h or 48 h) of 25 µM.
In the case of CSCC[C@H](NC(=O)[C@H](CCCNC(=N)N)NC(=O)[C@H](CCCNC(=N)N)NC(=O)[C@H](CC(C)C)NC(=O)[C@H](CCCNC(=N)N)NC(=O)[C@H](CCC(=O)O)NC(=O)[C@@H](NC(=O)[C@H](CS)NC(=O)CNC(=O)[C@H](CCCNC(=N)N)NC(=O)[C@@H](N)CCCNC(=N)N)[C@@H](C)O)C(=O)N[C@@H](C)C(=O)N[C@@H](CCCNC(=N)N)C(=O)N[C@@H](CCCNC(=N)N)C(=O)N[C@@H](CC(N)=O)C(=O)N[C@@H](C)C(=O)N[C@@H](Cc1c[nH]c2ccccc12)C(=O)N[C@@H](CC(=O)O)C(=O)N[C@@H](CC(C)C)C(=O)N[C@@H](Cc1ccc(O)cc1)C(=O)N[C@@H](C)C(=O)N[C@@H](CCC(=O)O)C(=O)N[C@@H](Cc1c[nH]cn1)C(=O)N[C@@H](Cc1ccccc1)C(=O)N[C@@H](Cc1ccc(O)cc1)C(=O)O [PF-148] (H-RRGCTERLRRMARRNAWDLYAEHFY-OH; N-terminus and C-terminus assumed), the MIC [2] is reported as 50 µM (≈ 161 µg/mL) and the MIC [8] is reported as 50 µM (≈ 161 µg/mL).
CC(C)[C@H](NC(=O)[C@H](C)NC(=O)[C@H](Cc1ccc(O)cc1)NC(=O)[C@@H](N)CC(N)=O)C(=O)N[C@H](C(=O)N[C@@H](CO)C(=O)N[C@@H](Cc1c[nH]cn1)C(=O)N[C@H](C(=O)O)[C@@H](C)O)C(C)C [PF-209] (H-NYAVVSHT-OH; N-terminus and C-terminus assumed) showed an MIC [4] of 50 µM (≈ 44.5 µg/mL).
CC[C@H](C)[C@H](N)C(=O)N[C@@H](CC(C)C)C(=O)N[C@H](C(=O)N[C@@H](CC(C)C)C(=O)N[C@@H](CC(C)C)C(=O)N[C@@H](C)C(=O)N[C@@H](CC(C)C)C(=O)N[C@@H](CCC(N)=O)C(=O)N[C@H](C(=O)N[C@@H](CCC(=O)O)C(=O)N[C@@H](CC(C)C)C(=O)N[C@@H](CC(=O)O)C(=O)N[C@@H](CO)C(=O)N[C@@H](CCCCN)C(=O)N[C@@H](Cc1ccccc1)C(=O)N[C@@H](CCC(N)=O)C(=O)N[C@@H](Cc1ccc(O)cc1)C(=O)O)C(C)C)C(C)C [PF-C157] (H-ILVLLALQVELDSKFQY-OH; N-terminus and C-terminus assumed) was tested, and the MIC [6] was 50 µM (≈ 99.6 µg/mL).
CC[C@H](C)[C@H](NC(=O)[C@H](CO)NC(=O)[C@H](CC(N)=O)NC(=O)[C@H](CCCNC(=N)N)NC(=O)[C@H](CC(N)=O)NC(=O)[C@H](CC(C)C)NC(=O)[C@H](CCCCN)NC(=O)[C@H](CCCCN)NC(=O)[C@H](CCCCN)NC(=O)[C@@H](NC(=O)[C@@H]1CCCN1C(=O)[C@H](CO)NC(=O)[C@H](CCCNC(=N)N)NC(=O)[C@@H](NC(=O)[C@H](CCCNC(=N)N)NC(=O)[C@@H](NC(=O)[C@@H](N)CCSC)[C@@H](C)CC)[C@@H](C)CC)[C@@H](C)O)C(=O)N[C@@H](CO)C(=O)N[C@@H](CC(=O)O)C(=O)N[C@@H](Cc1c[nH]c2ccccc12)C(=O)N[C@@H](CCCCN)C(=O)N[C@@H](CO)C(=O)N[C@@H](CC(N)=O)C(=O)N[C@H](C(=O)N[C@@H](CO)C(=O)NCC(=O)N[C@@H](CCCNC(=N)N)C(=O)N[C@@H](Cc1ccccc1)C(=O)N[C@@H](Cc1ccccc1)C(=O)N[C@@H](Cc1ccc(O)cc1)C(=O)O)[C@@H](C)O [PF-283] (H-MIRIRSPTKKKLNRNSISDWKSNTSGRFFY-OH; N-terminus and C-terminus assumed) was tested, and the MIC [3] was 50 µM (≈ 182 µg/mL), the MIC [7] was 50 µM (≈ 182 µg/mL) and the MIC [8] was 50 µM (≈ 182 µg/mL).
